Counter-ions that a name gives are not always drawn.
Assays:
[1] = tested on: HTT mRNA; experiment: Splicing RT-qPCR assay, HTT canonical (CJ) and alternative (AJ) junction mRNA; type: cell-based; conditions: Homo sapiens, A673 or K562 cells, 24 hours treatment; for IC50: decrease in CJ mRNA; for AC50: increase in AJ mRNA
Description: Compounds described herein were used to modulate RNA transcript abundance in cells. The expression of a target mRNA was measured by detecting the formation of an exon-exon junction in the canonical transcript (CJ). A compound mediated exon-inclusion event was detected by observing an increase in formation of a new junction with an alternative exon (AJ). Real-time qPCR assays were used to detect these splicing switches and interrogate the potency of various compounds towards different target genes. A high-throughput real time quantitative PCR (RT-qPCR) assay was developed to measure these two isoforms of the mRNA (CJ and AJ) for exemplary genes, such as HTT, SMN2, and MYB, together with a control housekeeping gene, GAPDH or GUSB or PPIA, used for normalization. Briefly, the A673 or K562 cell line was treated with various compounds described herein (e.g., compounds of Formula (I)). After treatment, the levels of the HTT, MYB, or SMN2 mRNA targets were determined from each sample of cell lysate by cDNA synthesis followed by qPCR.
• Cells-to-CT 1-step kit: ThermoFisher A25602, Cells-to-CT lysis reagent: ThermoFisher 4391851C, TaqMan™ Fast Virus 1-Step Master Mix: ThermoFisher 4444436 • GAPDH: VIC-PL, ThermoFisher 4326317E (Assay: Hs99999905_ml)—used for K562/suspension cell lines • GUSB: VIC-PL, ThermoFisher 4326320E (Assay: Hs99999908_ml)—used for K562/suspension cell lines • PPIA: VIC-PL, ThermoFisher 4326316E (Assay: Hs99999904_ml)—used for A673/adherent cell lines
The A673 cell line was cultured in DMEM with 10% FBS. Cells were diluted with full growth media and plated in a 96-well plate (15,000 cells in 100 ul media per well). The plate was incubated at 37° C. with 5% CO2 for 24 hours to allow cells to adhere. An 11-point 3-fold serial dilution of the compounds was made in DMSO then diluted in media in an intermediate plate. Compounds were transferred from the intermediate plate to the cell plate with the top dose at a final concentration of 10 uM in the well. Final DMSO concentration was kept at or below 0.25%. The cell plate was returned to the incubator at 37° C. with 5% CO2 for an additional 24 hours.
The K562 cell line was cultured in IMDM with 10% FBS. For K562, cells were diluted with full growth media and plated in either a 96-well plate (50,000 cells in 50 uL media per well) or a 384-well plate (8,000-40,000 cells in 45 uL media per well). An 11-point 3-fold serial dilution of the compounds were made in DMSO then diluted in media in an intermediate plate. Compound was transferred from the intermediate plate to the cell plate with the top dose at a final concentration of 10 uM in the well. Final DMSO concentration was kept at or below 0.25%. Final volume was 100 uL for 96-well plate and 50 uL for 384-well plate. The cell plate was then placed in an incubator at 37° C. with 5% CO2 for 24 hours.
The cells were then gently washed with 50 uL-100 uL cold PBS before proceeding to addition of lysis buffer. 30 uL-50 μL of room temperature lysis buffer with DNAse I (and optionally RNAsin) was added to each well. Cells were shaken/mixed thoroughly at room temperature for 5-10 minutes for lysis to take place and then 3 uL-5 μL of room temperature stop solution was added and wells were shaken/mixed again. After 2-5 minutes, the cell lysate plate was transferred to ice for RT-qPCR reaction setup. The lysates could also be frozen at −80° C. for later use.
In some cases, a direct lysis buffer was used. An appropriate volume of 3×lysis buffer (10 mM Tris, 150 mM NaCl, 1.5%-2.5% Igepal and 0.1-1 U/uL RNAsin, pH 7.4) was directly added to either K562 or A673 cells in media and mixed by pipetting 3 times. The plates were then incubated at room temperature with shaking/rocking for 20-50 minutes to allow for lysis to take place. After this time, the cell lysate plate was transferred to ice to set up for the RT-qPCR reactions. The lysates could also be frozen at −80° C. for later use. […]

[2] = tested on: HiBiT-tagged Target C protein in K562 cells; experiment: HiBiT protein abundance assay, Target C; type: cell-based, human; conditions: HiBiT-modified K562 cells, 24 hours, luminescence
Description: Compounds described herein were used to screen for effects on quantitative protein abundance using a HiBit assay system (Promega). Quantitative protein abundance was determined by measuring the protein levels of HiBit-tagged protein targets expressed in cell culture via luminescence using the Nano-Glo HiBiT Lytic Detection System, which uses a split complementation assay format to reconstitute NanoBiT enzyme to generate a luminescent signal. A protein abundance assay was developed such that endogenous protein targets could be modified with the HiBiT peptide tag and their abundance could be assessed after compound treatment. Briefly, K562 cell lines containing a HiBiT-modification were treated with various compounds described herein (e.g., compounds of Formulas (I), (II), or (III)). After treatment for 24 hours, the protein abundance of a specific target was determined by measuring luminescence.
• Promega Nano-Glo HiBiT Lytic Detection System (cat #N3030) • Corning 384-well TC-treated microplates (cat #3570) • Synthego Engineered Cells Knock-In Clones
Cells were maintained in IMDM with 10% FBS. Before the assay, cells were diluted with […] growth media (IMDM+1% FBS media) and were seeded in a 384-well plate at a density of 10000 cells/well (for each cell line listed in Table 5). Each compound was prepared as a 10-point 3-fold serial dilution in DMSO with the top dose at a final concentration of 10 μM in the well. Unmodified K562 cells were added at the previously specified density with DMSO to serve as an assay baseline and positive control (PC) and DMSO only with the respective modified cell lines was added to the negative control (NC) columns. Final DMSO concentration was kept at or below 0.25%. Treated cell plates were placed in an incubator at 37° C. with 5% CO2 for 24 hours. After 24 hours, 25 μL of Complete HiBit Lytic reagent was added to each well at room temperature (e.g. one plate requiring 10 mL Lytic Buffer, 100 μL LgBiT Protein, 200 μL Lytic Substrate), shaken for 5 minutes at 600 RPM, then left to sit for 10 minutes for signal to stabilize before reading on a Spark Cyto plate reader (Tecan) with a 500 ms measurement time.
To determine compound effects on protein abundance of each target in Table 5, the percent response for each respective cell line was calculated at each compound concentration as follows:
For the normalized response at each concentration, a four-parameter logistical regression was fit to the data and the response was interpolated at the 50% value to determine a concentration for protein abundance at 50% (IC50) the untreated control.

Compound	IC50 [1] [µM]	AC50 [1] [µM]	IC50 [2] [µM]
Cc1cn2cc(-c3cc4ncn([C@H]5CCNC[C@@H]5F)c(=O)c4s3)cc(F)c2n1 (relative stereo) [Compound 272, trans-6-{8-fluoro-2-methylimidazo[1,2-a]pyridin-6-yl}-3-[3-fluoropiperidin-4-yl]thieno[3,2-d]pyrimidin-4-one]	1 to 10	> 10	1 to 10
Cc1cn2cc(-c3cc4ncn([C@H]5CCNC[C@H]5F)c(=O)c4s3)cc(F)c2n1 (relative stereo) [Compound 273, cis-6-{8-fluoro-2-methylimidazo[1,2-a]pyridin-6-yl}-3-[3-fluoropiperidin-4-yl]thieno[3,2-d]pyrimidin-4-one]	0.1 to 1	1 to 10	1 to 10
Cc1cn2cc(-c3cc4ncn([C@H]5CCN[C@H](C)C5)c(=O)c4s3)cc(F)c2n1 (relative stereo) [Compound 277, 6-{8-fluoro-2-methylimidazo[1,2-a]pyridin-6-yl}-3-[(trans)-2-methylpiperidin-4-yl]thieno[3,2-d]pyrimidin-4-one]	0.1 to 1	0.1 to 1	0.1 to 1
Cc1cn2cc(-c3cc4ncn([C@H]5CCN[C@@H](C)C5)c(=O)c4s3)cc(F)c2n1 (relative stereo) [Compound 278, 6-{8-fluoro-2-methylimidazo[1,2-a]pyridin-6-yl}-3-[(cis)-2-methylpiperidin-4-yl]thieno[3,2-d]pyrimidin-4-one hydrochloride]	0.1 to 1	0.1 to 1	0.1 to 1
Cc1cc(-c2cc(=O)n3cc(N4CCN(C)CC4)sc3n2)cc2cn(C)nc12 [Compound 109, 7-(2,7-dimethyl-2H-indazol-5-yl)-2-(4-methylpiperazin-1-yl)-5H-thiazolo[3,2-a]pyrimidin-5-one]	> 10	> 10	> 10
Cc1cc(-c2cc(=O)n3nc(N4CCN(C)CC4)sc3n2)cc2cn(C)nc12 [Compound 157, 7-(2,7-dimethyl-2H-indazol-5-yl)-2-(4-methylpiperazin-1-yl)-5H-[1,3,4]thiadiazolo[3,2-a]pyrimidin-5-one]	> 10	> 10	> 10
Cc1cn2cc(-c3cc(=O)n4nc(N5CCN(C)CC5)sc4n3)cc(F)c2n1 [Compound 159, 7-(8-fluoro-2-methylimidazo[1,2-a]pyridin-6-yl)-2-(4-methylpiperazin-1-yl)-5H-[1,3,4]thiadiazolo[3,2-a]pyrimidin-5-one]	1 to 10	1 to 10	1 to 10
Cc1cn2nc(-c3cc(=O)n4cc(N(C)C5CC(C)(C)NC(C)(C)C5)sc4n3)cc(C)c2n1 [Compound 205, 7-(2,8-dimethylimidazo[1,2-b]pyridazin-6-yl)-2-(methyl(2,2,6,6-tetramethylpiperidin-4-yl)amino)-5H-thiazolo[3,2-a]pyrimidin-5-one]	1 to 10	1 to 10	1 to 10
Cc1cc(-c2nn3c(=O)cc(N4CCNCC4)nc3s2)cc2cn(C)nc12 [Compound 206, 2-(2,7-dimethyl-2H-indazol-5-yl)-7-(piperazin-1-yl)-5H-[1,3,4]thiadiazolo[3,2-a]pyrimidin-5-one]	1 to 10	1 to 10	1 to 10
Cc1cn2cc(-c3cc(=O)n4cc(N5CCNC6(CC6)C5)sc4n3)cc(F)c2n1 [Compound 207, 7-(8-fluoro-2-methylimidazo[1,2-a]pyridin-6-yl)-2-(4,7-diazaspiro[2.5]octan-7-yl)-5H-thiazolo[3,2-a]pyrimidin-5-one]	> 10	> 10	> 10
Cc1cn2cc(-c3cn4c(=O)cc(N5CCNC6(CC6)C5)nc4s3)cc(F)c2n1 [Compound 208, 2-(8-fluoro-2-methylimidazo[1,2-a]pyridin-6-yl)-7-(4,7-diazaspiro[2.5]octan-7-yl)-5H-thiazolo[3,2-a]pyrimidin-5-one]	1 to 10	1 to 10	1 to 10
Cc1cn2cc(-c3cc(=O)n4nc(N5CCNC6(CC6)C5)sc4n3)cc(F)c2n1 [Compound 209, 7-(8-fluoro-2-methylimidazo[1,2-a]pyridin-6-yl)-2-(4,7-diazaspiro[2.5]octan-7-yl)-5H-[1,3,4]thiadiazolo[3,2-a]pyrimidin-5-one]	1 to 10	1 to 10	1 to 10
Cc1cc(-c2nn3c(=O)cc(N4CCN(C)CC4)nc3s2)cc2cn(C)nc12 [Compound 210, 2-(2,7-dimethyl-2H-indazol-5-yl)-7-(4-methylpiperazin-1-yl)-5H-[1,3,4]thiadiazolo[3,2-a]pyrimidin-5-one]	1 to 10	1 to 10	1 to 10
Cc1cn2nc(-c3cc(=O)n4cc(N5CCNC6(CC6)C5)sc4n3)cc(C)c2n1 [Compound 211, 7-(2,8-dimethylimidazo[1,2-b]pyridazin-6-yl)-2-(4,7-diazaspiro[2.5]octan-7-yl)-5H-thiazolo[3,2-a]pyrimidin-5-one]	1 to 10	1 to 10	1 to 10
Cc1cn2nc(-c3cn4c(=O)cc(N5CCNC6(CC6)C5)nc4s3)cc(C)c2n1 [Compound 212, 2-(2,8-dimethylimidazo[1,2-b]pyridazin-6-yl)-7-(4,7-diazaspiro[2.5]octan-7-yl)-5H-thiazolo[3,2-a]pyrimidin-5-one]	1 to 10	1 to 10	1 to 10
Cc1cn2cc(-c3cn4c(=O)cc(N5CCNCC5)nc4s3)cc(F)c2n1 [Compound 213, 2-(8-fluoro-2-methylimidazo[1,2-a]pyridin-6-yl)-7-(piperazin-1-yl)-5H-thiazolo[3,2-a]pyrimidin-5-one]	> 10	> 10	> 10
